Where a name gives a salt, the structure may show the parent alone.
Target: KRas G12D (Homo sapiens (Human), UniProt P01116, G12D)
Test: KRas G12D Binding Assay (TR-FRET displacement of Cy5 labelled tracer)
Conditions: GDP-loaded KRAS G12D (amino acids 1:169), 60 minute incubation at 22° C.
Protocol: After a 60 minute incubation at 22° C., the reaction was measured using a PerkinElmer EnVision multimode plate reader via TR-FRET dual wavelength detection, and the percent of control (POC) calculated using a ratiometric emission factor. […] The POC values were fit to a 4-parameter logistic curve and the IC50 value was determined as the concentration where the curve crosses 50 POC.
ND stands for “not determined.”

Sequence of KRas G12D (P01116 other isoform, or with tags, fused parts or gaps G12D): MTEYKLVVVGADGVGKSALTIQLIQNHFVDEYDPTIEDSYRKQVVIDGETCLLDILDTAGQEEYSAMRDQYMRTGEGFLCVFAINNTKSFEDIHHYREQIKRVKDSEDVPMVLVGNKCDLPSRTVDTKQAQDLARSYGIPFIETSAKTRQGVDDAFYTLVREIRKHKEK

Going from `Cc1ccc2sc(N)nc2c1-c1ncc2c(N3C[C@H]4CC[C@@H](C3)N4)nc(OCC34CCCN3CCC4)nc2c1F` [Example 458, 4-(4-((1R,5S)-3,8-diazabicyclo[3.2.1]octan-3-yl)-8-fluoro-2-((hexahydro-1H-pyrrolizin-7a-yl)methoxy)pyrido[4,3-d]pyrimidin-7-yl)-5-methylbenzo[d]thiazol-2-amine] to `Nc1cccc(F)c1-c1ncc2c(N3C[C@H]4CC[C@@H](C3)N4)nc(OCC34CCCN3CCC4)nc2c1F` [Example 265, 2-(4-((1R,5S)-3,8-diazabicyclo[3.2.1]octan-3-yl)-8-fluoro-2-((hexahydro-1H-pyrrolizin-7a-yl)methoxy)pyrido[4,3-d]pyrimidin-7-yl)-3-fluoroaniline], the IC50 rises from 143 nM to 794 nM (5.6-fold).

Compared with `Oc1cc(-c2ncc3c(N4CC5C[C@@H](n6cncn6)C(C4)N5)nc(OC[C@@]45CCCN4C[C@H](F)C5)nc3c2F)c2ccccc2c1` (mixture of isomers) [Example 333, 4-(4-((6R)-6-(1H-1,2,4-triazol-1-yl)-3,8-diazabicyclo[3.2.1]octan-3-yl)-8-fluoro-2-((2-fluorotetrahydro-1H-pyrrolizin-7a(5H)-yl)methoxy)pyrido[4,3-d]pyrimidin-7-yl)naphthalen-2-ol (racemic, trans)], `Fc1c(-c2ccccc2Cl)ncc2c(N3CC4CCC(C3)N4)nc(OC[C@@]34CCCN3C[C@H](F)C4)nc12` (stereo in doubt) [Example 414, 4-((1R,5S)-3,8-diazabicyclo[3.2.1]octan-3-yl)-7-(2-chlorophenyl)-8-fluoro-2-((2-fluorotetrahydro-1H-pyrrolizin-7a(5H)-yl)methoxy)pyrido[4,3-d]pyrimidine] is 1.9-fold higher in IC50: 450 nM for the first, 873 nM for the second. The first is the more potent here.

Compared with `CN1CCCC1(CO)COc1nc(N2C[C@H]3CC[C@@H](C2)N3)c2cnc(-c3cccc4ccccc34)c(F)c2n1` (stereo partly drawn) [Example 323, (2-(((4-((1R,5S)-3,8-diazabicyclo[3.2.1]octan-3-yl)-8-fluoro-7-(naphthalen-1-yl)pyrido[4,3-d]pyrimidin-2-yl)oxy)methyl)-1-methylpyrrolidin-2-yl)methanol], `O[C@H]1CN2CCC[C@]2(COc2nc(N3CC4CCC(C3)N4)c3cnc(-c4cccc5cccc(Cl)c45)c(F)c3n2)C1` (stereo in doubt) [Example 224, 7a-(((4-((1R,5S)-3,8-diazabicyclo[3.2.1]octan-3-yl)-7-(8-chloronaphthalen-1-yl)-8-fluoropyrido[4,3-d]pyrimidin-2-yl)oxy)methyl)hexahydro-1H-pyrrolizin-2-ol bis-hydrochloride] is 63-fold lower in IC50: 1690 nM for the first, 27 nM for the second. The second is the more potent here.

Going from `Fc1c(-c2cccc3cccc(OC(F)(F)F)c23)ncc2c(N3C[C@H]4CC[C@@H](C3)N4)nc(OCC34CCCN3CCC4)nc12` [Example 345, 4-((1R,5S)-3,8-diazabicyclo[3.2.1]octan-3-yl)-8-fluoro-2-((tetrahydro-1H-pyrrolizin-7a(5H)-yl)methoxy)-7-(8-(trifluoromethoxy)naphthalen-1-yl)pyrido[4,3-d]pyrimidine] to `Fc1c(-c2cccc(Cl)c2OC(F)(F)F)ncc2c(N3CC4CCC(C3)N4)nc(OCC34CCCN3CCC4)nc12` [Example 230, 4-((1R,5S)-3,8-diazabicyclo[3.2.1]octan-3-yl)-7-(3-chloro-2-(trifluoromethoxy)phenyl)-8-fluoro-2-((tetrahydro-1H-pyrrolizin-7a(5H)-yl)methoxy)pyrido[4,3-d]pyrimidine bis(2,2,2-trifluoroacetate], the IC50 rises from 10.6 nM to 1430 nM (130-fold). The first is the more potent here.

Compared with `CO[C@H]1CN2CCC[C@]2(COc2nc(N3CC4CCC(C3)N4)c3cnc(-c4cccc5cccc(Cl)c45)c(F)c3n2)C1` [Example 225, 4-((1R,5S)-3,8-diazabicyclo[3.2.1]octan-3-yl)-7-(8-chloronaphthalen-1-yl)-8-fluoro-2-((2-methoxytetrahydro-1H-pyrrolizin-7a(5H)-yl)methoxy)pyrido[4,3-d]pyrimidine bis-2,2,2-trifluoroacetate], `CCc1cccc2cccc(-c3ncc4c(N5C[C@H]6CC[C@@H](C5)N6)nc(OC[C@@]56CCCN5C[C@H](F)C6)nc4c3F)c12` [Example 465, 4-((1R,5S)-3,8-diazabicyclo[3.2.1]octan-3-yl)-7-(8-ethylnaphthalen-1-yl)-8-fluoro-2-(((2R,7aS)-2-fluorohexahydro-1H-pyrrolizin-7a-yl)methoxy)pyrido[4,3-d]pyrimidine] is 9200-fold lower in IC50: 9.2 nM for the first, 0.001 nM for the second.

Compared with `Nc1c(Cl)cc(Cl)c(F)c1-c1ncc2c(N3C[C@H]4CC[C@@H](C3)N4)nc(OCC34CCCN3CCC4)nc2c1F` [Example 266, 2-(4-((1R,5S)-3,8-diazabicyclo[3.2.1]octan-3-yl)-8-fluoro-2-((hexahydro-1H-pyrrolizin-7a-yl)methoxy)pyrido[4,3-d]pyrimidin-7-yl)-4,6-dichloro-3-fluoroaniline], `Fc1cccc(-c2ncc3c(N4C[C@H]5CC[C@@H](C4)N5)nc(OCC45CCCN4CCC5)nc3c2F)c1C1CC1` [Example 304, 4-((1R,5S)-3,8-diazabicyclo[3.2.1]octan-3-yl)-7-(2-cyclopropyl-3-fluorophenyl)-8-fluoro-2-((hexahydro-1H-pyrrolizin-7a-yl)methoxy)pyrido[4,3-d]pyrimidine] is 9.5-fold lower in IC50: 278 nM for the first, 29.2 nM for the second.

First: CCc1cccc2cccc(-c3ncc4c(N5CC6CCC(C5)N6)nc(OC[C@@]56C[C@H](O)CN5C[C@H](O)C6)nc4c3F)c12 [Example 466, (2R,6S,7as)-7a-(((4-((1R,5S)-3,8-diazabicyclo[3.2.1]octan-3-yl)-7-(8-ethylnaphthalen-1-yl)-8-fluoropyrido[4,3-d]pyrimidin-2-yl)oxy)methyl)hexahydro-1H-pyrrolizine-2,6-diol]
Second: CN1CC[C@H](COc2nc(N3C[C@H]4CC[C@@H](C3)N4)c3cnc(-c4cccc5cccc(Cl)c45)c(F)c3n2)C1 [Example 357, 4-((1R,5S)-3,8-diazabicyclo[3.2.1]octan-3-yl)-7-(8-chloronaphthalen-1-yl)-8-fluoro-2-(((S)-1-methylpyrrolidin-3-yl)methoxy)pyrido[4,3-d]pyrimidine]
The IC50 of the first is 73000-fold lower: 0.006 nM for the first, 438 nM for the second.

Compared with `Oc1ccc(OC(F)(F)F)c(-c2ncc3c(N4CC5CCC(C4)N5)nc(OCC45CCCN4C[C@H](F)C5)nc3c2F)c1` (mixture of isomers) [Example 340, 3-(4-((1R,5S)-3,8-diazabicyclo[3.2.1]octan-3-yl)-8-fluoro-2-((2-fluorotetrahydro-1H-pyrrolizin-7a(5H)-yl)methoxy)pyrido[4,3-d]pyrimidin-7-yl)-4-(trifluoromethoxy)phenol (racemic, trans)], `Fc1c(-c2c(C(F)(F)F)ccc3[nH]ncc23)ncc2c(N3CC4CCC(C3)N4)nc(OCC34CCCN3C[C@H](F)C4)nc12` (mixture of isomers) [Example 343, 4-((1R,5S)-3,8-diazabicyclo[3.2.1]octan-3-yl)-8-fluoro-2-((2-fluorotetrahydro-1H-pyrrolizin-7a(5H)-yl)methoxy)-7-(5-(trifluoromethyl)-1H-indazol-4-yl)pyrido[4,3-d]pyrimidine (racemic, trans)] is 26-fold higher in IC50: 0.4 nM for the first, 10.4 nM for the second.

`Cn1cc(CCOc2nc(N3C[C@H]4CC[C@@H](C3)N4)c3cnc(-c4cccc5cccc(Cl)c45)c(F)c3n2)cn1` [Example 146, 4-((1R,5S)-3,8-diazabicyclo[3.2.1]octan-3-yl)-7-(8-chloronaphthalen-1-yl)-8-fluoro-2-(2-(1-methyl-1H-pyrazol-4-yl)ethoxy)pyrido[4,3-d]pyrimidine] and `Fc1c(-c2cccc3cccc(Cl)c23)ncc2c(N3C[C@H]4CC[C@@H](C3)N4)nc(OC[C@H]3CCCO3)nc12` [Example 137, 4-((1R,5S)-3,8-diazabicyclo[3.2.1]octan-3-yl)-7-(8-chloronaphthalen-1-yl)-8-fluoro-2-(((R)-tetrahydrofuran-2-yl)methoxy)pyrido[4,3-d]pyrimidine] are within 1.5-fold of each other in IC50: 2290 nM for the first, 2630 nM for the second.

Compared with `Fc1c(-c2cccc3cccc(Cl)c23)ncc2c(N3CC4CCC(C3)N4)nc(OC[C@]34CCCN3C[C@H](c3ccccc3)C4)nc12` (stereo in doubt) [Example 221, 4-((1R,5S)-3,8-diazabicyclo[3.2.1]octan-3-yl)-7-(8-chloronaphthalen-1-yl)-8-fluoro-2-((2-phenyltetrahydro-1H-pyrrolizin-7a(5H)-yl)methoxy)pyrido[4,3-d]pyrimidine bis-hydrochloride salt], `Fc1c(-c2ccccc2C2CC2)ncc2c(N3C[C@H]4CC[C@@H](C3)N4)nc(OCC34CCCN3CCC4)nc12` [Example 297] is 5.7-fold higher in IC50: 15.7 nM for the first, 88.9 nM for the second.

First: Fc1c(-c2cccc3scnc23)ncc2c(N3C[C@H]4CC[C@@H](C3)N4)nc(OCC34CCCN3CCC4)nc12 [Example 454, 4-(4-((1R,5S)-3,8-diazabicyclo[3.2.1]octan-3-yl)-8-fluoro-2-((hexahydro-1H-pyrrolizin-7a-yl)methoxy)pyrido[4,3-d]pyrimidin-7-yl)benzo[d]thiazole]
Second: COc1ccccc1-c1ncc2c(N3C[C@H]4CC[C@@H](C3)N4)nc(OCC34CCCN3CCC4)nc2c1F [Example 273, 4-((1R,5S)-3,8-diazabicyclo[3.2.1]octan-3-yl)-8-fluoro-2-((hexahydro-1H-pyrrolizin-7a-yl)methoxy)-7-(2-methoxyphenyl)pyrido[4,3-d]pyrimidine]
The IC50 of the first is 4.5-fold lower: 295 nM for the first, 1340 nM for the second.

Going from `O[C@@H]1C[C@@H]2CN(c3nc(OCCc4nccn4CF)nc4c(F)c(-c5cccc6cccc(Cl)c56)ncc34)C[C@H]1N2` [Example 170, (1R,5R,6R)-3-(7-(8-chloronaphthalen-1-yl)-8-fluoro-2-(2-(1-(fluoromethyl)-1H-imidazol-2-yl)ethoxy)pyrido[4,3-d]pyrimidin-4-yl)-3,8-diazabicyclo[3.2.1]octan-6-ol] to `CN(C)Cc1ccc(COCCNC(=O)O[C@@H]2C[C@@H](COc3nc(N4C[C@H]5CC[C@@H](C4)N5)c4cnc(-c5cccc6cccc(Cl)c56)c(F)c4n3)N(C)C2)cc1` [Example 308, (3R,5S)-5-(((4-((1R,5S)-3,8-diazabicyclo[3.2.1]octan-3-yl)-7-(8-chloronaphthalen-1-yl)-8-fluoropyrido[4,3-d]pyrimidin-2-yl)oxy)methyl)-1-methylpyrrolidin-3-yl (2-((4-((dimethylamino)methyl)benzyl)oxy)ethyl)carbamate], the IC50 falls from 842 nM to 117 nM (7.2-fold). The second is the more potent here.

From patent US20230279025A1, “KRAS G12D INHIBITORS” (Mirati Therapeutics, Inc., priority 2020, published 2023)
